{"source": "ChEMBL document CHEMBL1932917", "about": "“4,5-dihydropyridazin-3-one derivatives as histamine H₃ receptor inverse agonists” (Bioorg Med Chem Lett, 2012)", "key": {"[1]": {"target": "Cytochrome P450 2C9 (Homo sapiens, UniProt P11712)", "sequence (P11712 whole entry)": "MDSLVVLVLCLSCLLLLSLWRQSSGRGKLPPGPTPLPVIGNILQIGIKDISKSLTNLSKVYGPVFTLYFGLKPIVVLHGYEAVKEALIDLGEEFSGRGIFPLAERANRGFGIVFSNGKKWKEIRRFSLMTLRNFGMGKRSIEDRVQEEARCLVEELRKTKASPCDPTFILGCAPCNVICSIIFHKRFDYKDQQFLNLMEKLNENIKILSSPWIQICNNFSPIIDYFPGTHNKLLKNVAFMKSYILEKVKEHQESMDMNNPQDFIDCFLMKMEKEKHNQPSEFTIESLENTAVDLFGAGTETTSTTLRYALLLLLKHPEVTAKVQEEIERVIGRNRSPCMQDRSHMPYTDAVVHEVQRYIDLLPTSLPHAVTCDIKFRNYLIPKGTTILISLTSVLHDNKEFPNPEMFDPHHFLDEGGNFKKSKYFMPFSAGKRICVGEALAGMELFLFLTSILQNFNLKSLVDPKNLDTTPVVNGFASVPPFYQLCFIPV", "assay": "Inhibition of CYP2C9", "format": "ADME"}, "[2]": {"assay": "Solubility of the compound in water at pH 7.4", "format": "physicochemical"}, "[3]": {"assay": "Plasma protein binding in dog", "format": "ADME, cell-free, Canis lupus familiaris", "conditions": "read-out: PPB (converted)"}, "[4]": {"target": "Cytochrome P450 2C19 (Homo sapiens, UniProt P33261)", "sequence (P33261 whole entry)": "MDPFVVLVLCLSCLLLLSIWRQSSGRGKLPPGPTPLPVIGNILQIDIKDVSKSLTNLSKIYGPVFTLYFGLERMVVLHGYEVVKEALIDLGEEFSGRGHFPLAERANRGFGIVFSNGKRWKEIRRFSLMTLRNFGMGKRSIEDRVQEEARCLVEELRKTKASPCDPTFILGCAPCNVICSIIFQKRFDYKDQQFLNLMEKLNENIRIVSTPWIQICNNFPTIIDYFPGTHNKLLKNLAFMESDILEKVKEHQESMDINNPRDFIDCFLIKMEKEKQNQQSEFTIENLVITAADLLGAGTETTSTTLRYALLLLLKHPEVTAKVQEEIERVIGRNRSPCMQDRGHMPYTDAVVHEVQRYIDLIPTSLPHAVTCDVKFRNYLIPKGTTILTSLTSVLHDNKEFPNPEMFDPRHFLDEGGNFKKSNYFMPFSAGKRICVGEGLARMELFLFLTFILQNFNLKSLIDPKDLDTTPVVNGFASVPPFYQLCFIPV", "assay": "Inhibition of CYP2C19", "format": "ADME"}, "[5]": {"test_system": "Rattus norvegicus", "assay": "Effect on sleep-awake cycle in EEG/EMG rat model assessed as wake promotion at 10 mg/kg, ip after 4 hrs (reference value: 80 +/- 5 mins)", "format": "functional", "conditions": "route intraperitoneal"}, "[6]": {"assay": "Plasma protein binding in rat", "format": "ADME, cell-free", "conditions": "read-out: PPB (converted)"}, "[7]": {"assay": "Ratio of drug level in brain to plasma in rat at 10 mg/kg, ip after 6 hrs", "format": "ADME, organism-based", "design": "dose 10 mg/kg, route intraperitoneal", "conditions": "brain/plasma, read-out: BPR"}, "[8]": {"assay": "Plasma protein binding in human", "format": "ADME, cell-free", "conditions": "read-out: PPB (converted)"}, "[9]": {"target": "Histamine H3 receptor (Rattus norvegicus, UniProt Q9QYN8)", "sequence (Q9QYN8 whole entry)": "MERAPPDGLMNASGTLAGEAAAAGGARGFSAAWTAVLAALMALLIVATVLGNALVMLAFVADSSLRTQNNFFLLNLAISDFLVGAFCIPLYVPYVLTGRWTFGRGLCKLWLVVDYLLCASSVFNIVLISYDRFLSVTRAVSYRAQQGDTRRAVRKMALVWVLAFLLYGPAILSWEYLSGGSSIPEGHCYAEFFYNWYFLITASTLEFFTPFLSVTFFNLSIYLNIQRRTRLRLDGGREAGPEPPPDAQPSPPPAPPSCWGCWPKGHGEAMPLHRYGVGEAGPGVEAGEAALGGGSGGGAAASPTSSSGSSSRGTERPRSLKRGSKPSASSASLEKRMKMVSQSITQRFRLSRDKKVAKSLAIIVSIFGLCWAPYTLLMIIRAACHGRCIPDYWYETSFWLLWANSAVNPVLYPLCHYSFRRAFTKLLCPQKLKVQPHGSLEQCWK", "assay": "Displacement of [3H]NAMH from rat histamine H3 receptor expressed in CHO cells", "format": "cell-based"}, "[10]": {"target": "T1, Histamine H3 receptor (Homo sapiens, UniProt Q9Y5N1)", "T1 sequence (Q9Y5N1 whole entry)": "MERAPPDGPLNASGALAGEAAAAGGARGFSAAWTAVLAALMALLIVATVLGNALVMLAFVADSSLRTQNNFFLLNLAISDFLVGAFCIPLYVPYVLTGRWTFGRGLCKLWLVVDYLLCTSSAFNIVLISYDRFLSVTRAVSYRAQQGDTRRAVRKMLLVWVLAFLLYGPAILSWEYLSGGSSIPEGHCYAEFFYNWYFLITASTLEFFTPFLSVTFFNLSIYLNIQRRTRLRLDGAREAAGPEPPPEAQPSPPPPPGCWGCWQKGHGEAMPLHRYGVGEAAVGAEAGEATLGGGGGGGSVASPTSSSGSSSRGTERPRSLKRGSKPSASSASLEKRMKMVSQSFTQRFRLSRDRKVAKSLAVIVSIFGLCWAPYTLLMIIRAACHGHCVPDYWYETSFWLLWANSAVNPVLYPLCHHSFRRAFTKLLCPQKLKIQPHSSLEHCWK", "assay": "Inverse agonist activity at human histamine H3 receptor by [35S]GTPgammaS binding assay", "format": "functional"}, "[11]": {"assay": "Half life in rat at 1 mg/kg, iv", "format": "ADME, organism-based", "design": "dose 1 mg/kg, route intravenous", "conditions": "in vivo"}, "[12]": {"target": "Histamine H1 receptor (Homo sapiens) (UniProt P35367)", "sequence (P35367 whole entry)": "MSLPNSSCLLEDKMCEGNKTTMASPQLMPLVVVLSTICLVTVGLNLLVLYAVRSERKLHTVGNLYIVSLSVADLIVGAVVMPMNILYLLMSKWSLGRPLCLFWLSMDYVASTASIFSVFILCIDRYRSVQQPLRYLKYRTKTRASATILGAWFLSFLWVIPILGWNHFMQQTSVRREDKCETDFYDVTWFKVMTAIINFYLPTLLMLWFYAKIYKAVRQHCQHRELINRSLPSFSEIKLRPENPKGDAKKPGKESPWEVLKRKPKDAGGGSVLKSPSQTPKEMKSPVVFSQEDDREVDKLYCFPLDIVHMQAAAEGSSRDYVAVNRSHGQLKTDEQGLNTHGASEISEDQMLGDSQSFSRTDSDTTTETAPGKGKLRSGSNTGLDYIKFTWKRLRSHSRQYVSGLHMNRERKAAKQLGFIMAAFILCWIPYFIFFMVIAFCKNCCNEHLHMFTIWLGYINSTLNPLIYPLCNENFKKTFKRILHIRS", "assay": "Inhibition human histamine H1 receptor at 10 uM"}, "[13]": {"test_system": "Rattus norvegicus", "assay": "Effect on sleep-awake cycle in ip dosed EEG/EMG rat model assessed as wake promotion after 4 hrs relative to control", "format": "functional, organism-based"}, "[14]": {"target": "T1, Histamine H3 receptor", "assay": "Displacement of [3H]NAMH from human histamine H3 receptor expressed in CHO cells", "format": "cell-based"}, "[15]": {"assay": "Oral bioavailability in rat at 5 mg/kg", "format": "ADME, organism-based", "conditions": "in vivo"}, "[16]": {"assay": "Clearance in rat at 1 mg/kg, iv", "format": "ADME, organism-based", "design": "dose 1 mg/kg, route intravenous", "conditions": "in vivo"}, "[17]": {"test_system": "Rattus norvegicus", "assay": "Effect on sleep-awake cycle in EEG/EMG rat model assessed as wake promotion time at 10 mg/kg, ip after 4 hrs relative to control", "format": "functional", "conditions": "route intraperitoneal"}, "[18]": {"target": "T1, Histamine H3 receptor", "assay": "Antagonist activity at human histamine H3 receptor by [35S]GTPgammaS binding assay", "format": "functional"}, "[19]": {"assay": "Solubility of the compound in water at pH 2", "format": "physicochemical"}, "[20]": {"target": "Histamine H4 receptor (Homo sapiens) (UniProt Q9H3N8)", "sequence (Q9H3N8 whole entry)": "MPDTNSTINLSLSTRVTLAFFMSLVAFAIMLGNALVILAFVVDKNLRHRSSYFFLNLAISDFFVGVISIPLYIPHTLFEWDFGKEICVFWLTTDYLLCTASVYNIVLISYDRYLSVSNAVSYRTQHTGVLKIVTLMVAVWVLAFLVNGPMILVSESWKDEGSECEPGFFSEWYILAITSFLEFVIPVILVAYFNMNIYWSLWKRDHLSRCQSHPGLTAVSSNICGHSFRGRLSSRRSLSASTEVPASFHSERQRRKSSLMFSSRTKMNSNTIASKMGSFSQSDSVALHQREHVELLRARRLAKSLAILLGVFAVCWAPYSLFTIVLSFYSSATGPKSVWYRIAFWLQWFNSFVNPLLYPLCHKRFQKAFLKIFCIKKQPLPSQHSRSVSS", "assay": "Inhibition human histamine H4 receptor at 10 uM"}, "[21]": {"target": "Cytochrome P450 3A4 (Homo sapiens, UniProt P08684)", "sequence (P08684 whole entry)": "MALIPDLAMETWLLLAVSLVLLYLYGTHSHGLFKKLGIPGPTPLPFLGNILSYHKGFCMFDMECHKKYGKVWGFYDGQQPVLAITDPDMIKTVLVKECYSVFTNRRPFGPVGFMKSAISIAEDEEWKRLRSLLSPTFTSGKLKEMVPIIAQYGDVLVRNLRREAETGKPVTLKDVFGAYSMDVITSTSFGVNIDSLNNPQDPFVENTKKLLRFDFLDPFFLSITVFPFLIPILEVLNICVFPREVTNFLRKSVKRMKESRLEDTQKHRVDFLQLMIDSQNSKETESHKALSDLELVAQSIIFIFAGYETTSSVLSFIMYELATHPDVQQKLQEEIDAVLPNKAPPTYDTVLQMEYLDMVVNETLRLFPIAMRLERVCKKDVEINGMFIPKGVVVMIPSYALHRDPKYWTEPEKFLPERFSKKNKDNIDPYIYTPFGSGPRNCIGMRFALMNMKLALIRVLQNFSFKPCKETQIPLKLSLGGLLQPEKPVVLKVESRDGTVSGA", "assay": "Inhibition of CYP3A4", "format": "ADME"}, "[22]": {"target": "T2, Cytochrome P450 1A2 (Homo sapiens, UniProt P05177)", "T2 sequence (P05177 whole entry)": "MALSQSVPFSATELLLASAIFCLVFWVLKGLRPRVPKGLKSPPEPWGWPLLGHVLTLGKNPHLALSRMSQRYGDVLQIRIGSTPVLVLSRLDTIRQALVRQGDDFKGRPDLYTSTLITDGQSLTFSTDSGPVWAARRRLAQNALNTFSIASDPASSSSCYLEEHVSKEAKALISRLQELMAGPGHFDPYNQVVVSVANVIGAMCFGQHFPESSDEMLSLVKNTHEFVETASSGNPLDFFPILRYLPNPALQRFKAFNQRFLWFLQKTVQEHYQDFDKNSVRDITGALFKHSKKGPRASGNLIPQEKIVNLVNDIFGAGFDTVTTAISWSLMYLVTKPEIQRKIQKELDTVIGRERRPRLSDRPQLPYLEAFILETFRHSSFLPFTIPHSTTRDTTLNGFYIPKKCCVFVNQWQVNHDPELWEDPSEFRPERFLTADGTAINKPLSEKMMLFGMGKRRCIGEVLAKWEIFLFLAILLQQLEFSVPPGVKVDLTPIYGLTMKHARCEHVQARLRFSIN", "assay": "Inhibition of CYP1A2", "format": "ADME"}, "[23]": {"test_system": "Rattus norvegicus", "assay": "Effect on sleep-awake cycle in EEG/EMG rat model assessed as wake promotion time at 10 mg/kg, ip after 3 hrs relative to control", "format": "functional", "conditions": "route intraperitoneal"}, "[24]": {"target": "Histamine H2 receptor (Homo sapiens) (UniProt P25021)", "sequence (P25021 whole entry)": "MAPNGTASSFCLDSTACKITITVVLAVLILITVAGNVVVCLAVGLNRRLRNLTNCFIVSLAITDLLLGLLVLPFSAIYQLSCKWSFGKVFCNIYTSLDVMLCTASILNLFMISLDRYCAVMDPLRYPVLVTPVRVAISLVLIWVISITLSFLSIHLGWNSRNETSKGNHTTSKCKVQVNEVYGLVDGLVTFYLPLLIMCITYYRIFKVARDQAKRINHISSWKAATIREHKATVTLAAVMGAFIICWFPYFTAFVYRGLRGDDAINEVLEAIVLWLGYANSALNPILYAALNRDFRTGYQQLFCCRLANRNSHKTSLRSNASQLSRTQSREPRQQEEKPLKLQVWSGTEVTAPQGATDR", "assay": "Inhibition human histamine H2 receptor at 10 uM"}, "[25]": {"target": "Cytochrome P450 2D6 (Homo sapiens, UniProt P10635)", "sequence (P10635 whole entry)": "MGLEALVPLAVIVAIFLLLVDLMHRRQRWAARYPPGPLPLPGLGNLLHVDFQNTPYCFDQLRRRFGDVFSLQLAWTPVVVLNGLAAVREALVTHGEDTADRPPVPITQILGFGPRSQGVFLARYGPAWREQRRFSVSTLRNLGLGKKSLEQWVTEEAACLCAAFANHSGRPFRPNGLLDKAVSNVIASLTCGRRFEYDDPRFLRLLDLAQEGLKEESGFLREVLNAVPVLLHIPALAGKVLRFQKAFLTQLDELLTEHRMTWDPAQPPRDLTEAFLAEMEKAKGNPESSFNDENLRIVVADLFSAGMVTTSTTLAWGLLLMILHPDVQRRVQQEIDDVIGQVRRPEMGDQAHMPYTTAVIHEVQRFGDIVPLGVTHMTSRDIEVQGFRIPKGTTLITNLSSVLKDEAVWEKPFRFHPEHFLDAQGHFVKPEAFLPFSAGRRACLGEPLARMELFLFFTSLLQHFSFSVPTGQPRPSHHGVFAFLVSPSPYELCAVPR", "assay": "Inhibition of CYP2D6", "format": "ADME"}, "[26]": {"test_system": "Rattus norvegicus", "assay": "Inhibition of RAMH-induced dipsogenia in po dosed rat", "format": "functional"}, "[27]": {"assay": "Cmax in rat at 5 mg/kg, po", "format": "ADME, organism-based", "design": "dose 5 mg/kg, route oral", "conditions": "in vivo"}, "[28]": {"assay": "Volume of distribution in rat at 1 mg/kg, iv", "format": "ADME, organism-based", "design": "dose 1 mg/kg, route intravenous", "conditions": "in vivo"}, "[29]": {"assay": "Half life in mouse liver microsomes", "format": "ADME, Microsome"}, "[30]": {"assay": "Half life in human liver microsomes", "format": "ADME, Microsome"}, "[31]": {"test_system": "Rattus norvegicus", "assay": "Effect on sleep-awake cycle in EEG/EMG rat model assessed as wake promotion at 10 mg/kg, ip after 17 hrs relative to control", "format": "functional", "conditions": "route intraperitoneal"}, "[32]": {"test_system": "Rattus norvegicus", "assay": "Effect on sleep-awake cycle in EEG/EMG rat model assessed as wake promotion at 3 mg/kg, ip after 4 hrs (reference value: 80 +/- 5 mins)", "format": "functional", "conditions": "route intraperitoneal"}, "[33]": {"assay": "Half life in monkey liver microsomes", "format": "ADME, Macaca mulatta, Microsome", "conditions": "rhesus monkey"}, "[34]": {"assay": "Half life in rat liver microsomes", "format": "ADME, Microsome"}, "[35]": {"assay": "AUC in rat at 5 mg/kg, po", "format": "ADME, organism-based, Plasma", "design": "dose 5 mg/kg, route oral", "conditions": "plasma"}, "[36]": {"assay": "Drug uptake in rat brain at 5 mg/kg, po after 6 hrs", "format": "ADME, organism-based", "design": "dose 5 mg/kg, route oral", "conditions": "read-out: Drug uptake"}, "[37]": {"assay": "Half life in dog liver microsomes", "format": "ADME, Canis lupus familiaris, Microsome"}, "[38]": {"assay": "Apparent permeability of the compound in human Caco2 cells", "format": "ADME, cell-based", "conditions": "Caco-2"}, "[39]": {"test_system": "Rattus norvegicus", "assay": "Effect on sleep-awake cycle in EEG/EMG rat model assessed as wake promotion at 10 mg/kg, ip after 5 hrs relative to control", "format": "functional", "conditions": "route intraperitoneal"}, "[40]": {"test_system": "Rattus norvegicus", "assay": "Effect on sleep-awake cycle in EEG/EMG rat model assessed as wake promotion at 1 mg/kg, ip after 4 hrs (reference value: 80 +/- 5 mins)", "format": "functional", "conditions": "route intraperitoneal"}}}
{"molecule": "C[C@@H]1CCCN1CCCOc1ccc(C2=NNC(=O)C(C)(C)C2)cc1", "values": [{"measurement": "IC50", "setting": "[1]", "result": "> 30000", "unit": "nM"}, {"measurement": "solubility", "setting": "[2]", "result": "> 2000", "unit": "µg/mL"}, {"measurement": "fraction unbound", "setting": "[3]", "result": 0.84}, {"measurement": "IC50", "setting": "[4]", "result": "> 30000", "unit": "nM"}, {"measurement": "Activity", "setting": "[5]", "result": 201, "unit": "min"}, {"measurement": "fraction unbound", "setting": "[6]", "result": 0.72}, {"measurement": "Kp at 6 h", "setting": "[7]", "result": 2.4}, {"measurement": "fraction unbound", "setting": "[8]", "result": 0.74}, {"measurement": "Ki", "setting": "[9]", "result": 13, "unit": "nM"}, {"measurement": "EC50", "setting": "[10]", "result": 0.73, "unit": "nM"}, {"measurement": "half-life", "setting": "[11]", "result": 114, "unit": "min"}, {"measurement": "inhibition", "setting": "[12]", "result": "< 30", "unit": "%"}, {"measurement": "Activity", "setting": "[13]", "result": "Dose-dependent effect"}, {"measurement": "Ki", "setting": "[14]", "result": 4.3, "unit": "nM"}, {"measurement": "bioavailability", "setting": "[15]", "result": 38, "unit": "%"}, {"measurement": "clearance", "setting": "[16]", "result": 27, "unit": "mL/min/kg"}, {"measurement": "Activity", "setting": "[17]", "result": 150, "unit": "%"}, {"measurement": "Kb", "setting": "[18]", "result": 0.18, "unit": "nM"}, {"measurement": "solubility", "setting": "[19]", "result": "> 2000", "unit": "µg/mL"}, {"measurement": "inhibition", "setting": "[20]", "result": "< 30", "unit": "%"}, {"measurement": "IC50", "setting": "[21]", "result": "> 30000", "unit": "nM"}, {"measurement": "IC50", "setting": "[22]", "result": "> 30000", "unit": "nM"}, {"measurement": "Activity", "setting": "[23]", "result": 90, "unit": "%"}, {"measurement": "inhibition", "setting": "[24]", "result": "< 30", "unit": "%"}, {"measurement": "IC50", "setting": "[25]", "result": "> 30000", "unit": "nM"}, {"measurement": "ED50", "setting": "[26]", "result": 0.16, "unit": "mg/kg"}, {"measurement": "inhibition", "setting": "[26]", "result": "Dose-dependent effect"}, {"measurement": "Cmax", "setting": "[27]", "result": 189, "unit": "ng/mL"}, {"measurement": "Vd", "setting": "[28]", "result": 4.7, "unit": "L/kg"}, {"measurement": "half-life", "setting": "[29]", "result": "> 40", "unit": "min"}, {"measurement": "half-life", "setting": "[30]", "result": "> 40", "unit": "min"}, {"measurement": "Activity", "setting": "[31]", "result": 203, "unit": "min"}, {"measurement": "Activity", "setting": "[32]", "result": 127, "unit": "min"}, {"measurement": "half-life", "setting": "[33]", "result": "> 40", "unit": "min"}, {"measurement": "half-life", "setting": "[34]", "result": "> 40", "unit": "min"}, {"measurement": "AUC", "setting": "[35]", "result": 837, "unit": "ng·h/mL"}, {"measurement": "concentration at 6 h", "setting": "[36]", "result": 900, "unit": "nM"}, {"measurement": "half-life", "setting": "[37]", "result": "> 40", "unit": "min"}, {"measurement": "Papp", "setting": "[38]", "result": 14, "unit": "×10⁻⁶ cm/s"}, {"measurement": "Activity", "setting": "[39]", "result": 130, "unit": "min"}, {"measurement": "Activity", "setting": "[40]", "result": 119, "unit": "min"}]}
